According to patent publication US7981924B2, “Thiophene derivatives” (Actelion Pharmaceuticals Ltd., priority 2005, dated 2011):

Columns and labels:
circulating lymphocytes = assay: Assessment of in vivo efficacy: circulating lymphocytes after oral administration; parameters: species or system normotensive male Wistar rats; conditions: 6 h after oral administration of 10 mg/kg, male Wistar rats, compared to vehicle group; mean ± SEM
Description: The efficacy of the compounds of Formula (I) is assessed by measuring the circulating lymphocytes after oral administration of 3 to 30 mg/kg of a compound of Formula (I) to normotensive male Wistar rats. The animals are housed in climate-controlled conditions with a 12 h-light/dark cycle, and have free access to normal rat chow and drinking water. Blood is collected before and 3, 6 and 24 h after drug administration. Full blood is subjected to hematology using Advia Hematology system (Bayer Diagnostics, Zurich, Switzerland).
All data are presented as mean ±SEM. Statistical analyses are performed by analysis of variance (ANOVA) using Statistica (StatSoft) and the Student-Newman-Keuls procedure for multiple comparisons. The null hypothesis is rejected when p<0.05.

[1] = molecular target: recombinant human S1P1 receptor (Homo sapiens, UniProt P21453); assay: GTPγS assay to determine EC50 values; assay type: biochemical; conditions: 35S-GTPγS binding, membrane preparations of CHO cells expressing recombinant human S1P1 receptor
Chain of recombinant human S1P1 receptor (P21453 whole entry): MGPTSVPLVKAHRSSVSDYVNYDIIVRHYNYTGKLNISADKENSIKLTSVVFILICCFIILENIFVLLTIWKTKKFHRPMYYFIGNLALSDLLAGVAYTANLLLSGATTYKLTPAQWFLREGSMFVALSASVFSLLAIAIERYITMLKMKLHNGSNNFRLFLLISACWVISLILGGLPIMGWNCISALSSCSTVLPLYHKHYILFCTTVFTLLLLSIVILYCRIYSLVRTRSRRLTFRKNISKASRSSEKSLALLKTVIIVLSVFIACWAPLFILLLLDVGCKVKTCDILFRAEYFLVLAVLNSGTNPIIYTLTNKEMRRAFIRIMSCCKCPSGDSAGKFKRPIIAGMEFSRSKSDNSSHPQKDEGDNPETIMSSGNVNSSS
Description: GTPγS binding assays are performed in 96 well microtiter plates (Nunc, 442587) in a final volume of 200 μl, using membrane preparations of CHO cells expressing recombinant human S1P1 receptor. Assay conditions are 20 mM Hepes (Fluka, 54461), 100 mM NaCl (Fluka, 71378), 5 mM MgCl2 (Fluka, 63064), 0.1% BSA (Calbiochem, 126609), 1 μM GDP (Sigma, G-7127), 2.5% DMSO (Fluka, 41644), 50 pM ^35S-GTPγS (Amersham Biosciences, SJ1320). The pH is 7.4. Test compounds are dissolved and diluted in 100% DMSO and pre-incubated at room temperature for 30 min in 150 μl of the above assay buffer, in the absence of ^35S-GTPγS. After addition of 50 μl of ^35S-GTPγS, the assay is incubated for 1 h at rt. The assay is terminated by transfer of the reaction mixture to a Multiscreen plate (Millipore, MAHFC1H60) using a cell harvester from Packard Biosciences, and the plates are washed with ice-cold 10 mM Na2HPO4/NaH2PO4 (70%/30%), dried, sealed at the bottom and, after addition of 25 μl MicroScint20 (Packard Biosciences, order no. 6013621), sealed on the top. Membrane-bound ^35S-GTPγS is measured with a TopCount from Packard Biosciences.
EC50 is the concentration of agonist inducing 50% of the maximal specific ^35S-GTPγS binding. Specific binding is determined by subtracting non-specific binding from maximal binding. […]
The EC50 value was determined according to the method described above.

EC50 [1] [nM] | SMILES | Lymphocyte counts (circulating lymphocytes) [%]
 | CCc1sc(C(=O)CCc2cc(C)c(CCC(=O)O)c(C)c2)c2c1CC(C)(C)CC2 [Example 1, 3-{4-[3-(3-ethyl-5,5-dimethyl-4,5,6,7-tetrahydro-benzo[c]thiophen-1-yl)-3-oxo-propyl]-2,6-dimethyl-phenyl}-propionic acid] | −61 ± 5
4 | CCc1cc(CCC(=O)c2sc(C(F)(F)F)c3c2CCC(C)(C)C3)cc(C)c1CCC(=O)O [Example 4, 3-{4-[3-(5,5-Dimethyl-3-trifluoromethyl-4,5,6,7-tetrahydro-benzo[c]thiophen-1-yl)-3-oxo-propyl]-2-ethyl-6-methyl-phenyl}-propionic acid] | 
